Laboratory results reported in patent US9920061B2, “Imidazo[1,5-A]pyrimidinyl carboxamide compounds and their use in the treatment of medical disorders” (Lysosomal Therapeutics Inc., priority 2016, dated 2018).
Values after ≈ are worked out from the molar mass of the structure shown.

Columns and labels:
[1] = Compound solubility in water; type: physicochemical
[2] = target: T1, glucocerebrosidase (Gcase) (Homo sapiens, UniProt P04062); experiment: Glucocerebrosidase (Gcase) activation assay, 4-methylumbelliferyl-beta-D-glucopyranoside substrate, with saposin C; type: biochemical; conditions: for activation at 0.1 µM: 0.1 μM test compound, read-out: Percent Gcase Activation 0.1 μM Test Compound; for activation at 1 µM: 1 μM test compound, read-out: Percent Gcase Activation 1 μM Test Compound
T1 sequence (P04062 40-536): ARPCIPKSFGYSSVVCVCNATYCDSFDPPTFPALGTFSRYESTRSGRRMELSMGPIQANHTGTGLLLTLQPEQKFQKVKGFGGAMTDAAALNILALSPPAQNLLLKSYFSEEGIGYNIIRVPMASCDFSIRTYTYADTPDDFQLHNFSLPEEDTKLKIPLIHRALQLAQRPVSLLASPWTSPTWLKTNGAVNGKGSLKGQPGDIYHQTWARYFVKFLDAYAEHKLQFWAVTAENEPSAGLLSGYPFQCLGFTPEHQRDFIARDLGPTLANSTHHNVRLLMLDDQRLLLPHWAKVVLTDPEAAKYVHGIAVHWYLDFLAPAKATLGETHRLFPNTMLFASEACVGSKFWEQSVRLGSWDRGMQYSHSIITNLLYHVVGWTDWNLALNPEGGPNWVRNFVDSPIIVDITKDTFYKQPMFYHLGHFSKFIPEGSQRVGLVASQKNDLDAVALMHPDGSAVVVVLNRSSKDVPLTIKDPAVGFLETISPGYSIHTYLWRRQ
Protocol: The ability of exemplary compounds to activate glucocerebrosidase (Gcase) was measured.
A 484 μL aliquot of a 1.0 mg/mL solution of phosphatidylserine (PS) (Sigma P7769) in chloroform was evaporated under a stream of nitrogen for 1 hour. The lipid film was dissolved over 4 minutes of vigorous vortexing in 40 mL of 176 mM K2HPO4/50 mM citric acid (pH 4.7) containing 7.5 μL of triton X-100, resulting in a mixed micellar preparation with a composition of 0.32 mM triton and 0.37 mol % PS. 4-Methylumbelliferyl-beta-D-glucopyranoside (ACROS-337025000) was dissolved in the micellar solution to a final concentration of 2 mM for use as the reaction substrate.
Test compounds were diluted to the desired concentrations with dimethylsulfoxide (DMSO) from 10 mM stocks, and 0.41 μL of the DMSO compound mixture was added to 100 μL of micellar solution containing 10 nM GCase and 100 nM saposin C (Enzo ALX-201-262-C050). Pre-incubation was allowed to occur for 30 minutes at room temperature, after which the reaction was initiated by combining 25 μL of substrate solution with 25 μL of compound/GCase/saposin mixture. The reaction proceeded for 15 minutes at room temperature and was stopped by adding 150 μL of 1M glycine, pH 12.5. The endpoint of the reaction was monitored by measuring fluorescence intensity (excitation: 365 nm; emission: 440 nm) on a SpectraMax i3 instrument (Molecular Devices). Test compounds were screened at 1.0 and 0.1 μM final concentration, and subsequent 8-point dose response curves were obtained using 3-fold dilutions from a maximum final concentration of […].

Row | SMILES | solubility [1] | activation at 0.1 µM [2] | activation at 1 µM [2]
1 | COCc1cc(-c2ccc(F)cc2)n2cnc(C(=O)N[C@@H](C)C3CC3)c2n1 [III-35] | 43.5 µg/mL (≈ 118 µM) | < 10% | < 30%
2 | COCc1cc(-c2ccc(F)cc2)nc2c(C(=O)N[C@@H](C)C3CC3)ncn12 [III-36] | 22 µg/mL (≈ 59.7 µM) | 10 to 20% | > 60%
3 | C[C@H](NC(=O)c1ncn2cc(-c3ccc(F)cc3)cnc12)C1CC1 [III-37] | 2.2 µg/mL (≈ 6.78 µM) | < 10% | < 30%
4 | Cc1cc(-c2cccnc2)nc2c(C(=O)NC(C)(C)C3CC3)ncn12 [III-41] | 27.1 µg/mL (≈ 80.8 µM) | < 10% | 30 to 60%
5 | Cc1cc(-c2ccccn2)nc2c(C(=O)NC(C)(C)C3CC3)ncn12 [III-42] | 4 µg/mL (≈ 11.9 µM) | < 10% | > 60%
6 | Cc1cc(-c2cccnc2)nc2c(C(=O)NC(C)C3CC3)ncn12 (stereo not drawn) [III-43] | 31.1 µg/mL (≈ 96.8 µM) | < 10% | < 30%
7 | Cc1cc(-c2ccccn2)nc2c(C(=O)NC(C)C3CC3)ncn12 (stereo not drawn) [III-44] | 26 µg/mL (≈ 80.9 µM) | < 10% | < 30%
8 | Cc1cc(-c2cccnc2)nc2c(C(=O)N[C@@H](C)c3ccccc3F)ncn12 [III-45] | 5 µg/mL (≈ 13.3 µM) | < 10% | 30 to 60%
9 | Cc1cc(C)n2cnc(C(=O)NC(C)(C)CC3CC3)c2n1 [III-46] | 12 µg/mL (≈ 41.9 µM) | < 10% | > 60%
10 | Cc1cc(C)n2cnc(C(=O)NC(C)C(C)C3CC3)c2n1 (stereo not drawn) [III-47] | 24.2 µg/mL (≈ 84.5 µM) | < 10% | 30 to 60%
11 | Cc1cc(-c2cccnc2)nc2c(C(=O)NC(c3ccc(F)cc3)C(F)(F)F)ncn12 (stereo not drawn) [III-48] | 7.1 µg/mL (≈ 16.5 µM) | > 20% | > 60%
12 | Cc1cc(-c2ccccn2)nc2c(C(=O)NC(c3ccc(F)cc3)C(F)(F)F)ncn12 (stereo not drawn) [III-49] | 6.7 µg/mL (≈ 15.6 µM) | > 20% | > 60%
13 | Cc1cc(-c2cccc(F)c2)nc2c(C(=O)NC(C)C3CC3)ncn12 (stereo not drawn) [III-50] | 33.3 µg/mL (≈ 98.4 µM) | > 20% | > 60%
14 | Cc1cc(-c2ccccc2F)nc2c(C(=O)NC(C)C3CC3)ncn12 (stereo not drawn) [III-51] | 22.7 µg/mL (≈ 67.1 µM) | < 10% | > 60%
15 | COc1ccccc1-c1cc(C)n2cnc(C(=O)NC(C)C3CC3)c2n1 (stereo not drawn) [III-52] | 11.6 µg/mL (≈ 33.1 µM) | > 20% | > 60%

Continued, values first:

Row | solubility [1] | activation at 0.1 µM [2] | activation at 1 µM [2] | SMILES
16 | 7.8 µg/mL (≈ 22.3 µM) | > 20% | > 60% | COc1cccc(-c2cc(C)n3cnc(C(=O)NC(C)C4CC4)c3n2)c1 (stereo not drawn) [III-55]
17 | 16.2 µg/mL (≈ 48.2 µM) | < 10% | 30 to 60% | Cc1cc(-c2cnccn2)nc2c(C(=O)NC(C)(C)C3CC3)ncn12 [III-56]
18 | 23.4 µg/mL (≈ 69.6 µM) | < 10% | < 30% | Cc1cc(-c2cncnc2)nc2c(C(=O)NC(C)(C)C3CC3)ncn12 [III-57]
19 | 44.4 µg/mL (≈ 130 µM) | < 10% | > 60% | Cc1cc(-c2cncs2)nc2c(C(=O)NC(C)(C)C3CC3)ncn12 [III-58]
20 | 2.1 µg/mL (≈ 6.15 µM) | 10 to 20% | > 60% | Cc1cc(-c2cnsc2)nc2c(C(=O)NC(C)(C)C3CC3)ncn12 [III-59]
21 | 4 µg/mL (≈ 11.7 µM) | 10 to 20% | > 60% | Cc1cc(-c2ccns2)nc2c(C(=O)NC(C)(C)C3CC3)ncn12 [III-60]
22 | 5.5 µg/mL (≈ 16.1 µM) | 10 to 20% | > 60% | Cc1cc(-c2nccs2)nc2c(C(=O)NC(C)(C)C3CC3)ncn12 [III-61]
23 | 6.3 µg/mL (≈ 18.5 µM) | < 10% | > 60% | Cc1cc(-c2cscn2)nc2c(C(=O)NC(C)(C)C3CC3)ncn12 [III-62]
